The values below come from US7981897B2, “Crystal form of (3-cyano-1H-Indo1-7-yl)-[4-(4-fluorophenethyl)piperazin-1-yl]methanone, hydrochloride” (Merck Patent GmbH, priority 2004, dated 2011).

Molecules are shown by their SMILES.

The nature of data set [1]: Tabletting in a cam press: formation of form B under mechanical pressure, estimated by X-ray powder diffraction. In kind it is physicochemical. On the procedure:
The pressures here are preferably those which usually prevail during tablet production if ram forces of between about 2 and 16 kN, in particular between 6 and 16 kN, are used as the maximum pressing forces.
In an EK0 cam press from Korsch (Berlin, Germany), year of construction 2002, tablets are produced at a rate of 50 units per minute using a 7 mm, round, flat ram with bevel.
The tablets contain 50 mg of EMD281014 in crystal form A, 93.2 mg of lactose monohydrate, 4.5 mg of croscarmellose and 2.3 mg of magnesium stearate. The ingredients are dry-mixed and compressed directly.
The proportion of form B is estimated by comparison of the X-ray powder diffraction patterns of the mixtures (FIGS. 3 and 4) with the diffraction patterns of the pure forms (FIGS. 1 and 2).

A short description of data set [2]: Stirring a suspension of form A in MTBE, form B estimated by X-ray powder diffraction. In kind it is physicochemical.
Data set [3] can be described thus: Storage of form B at elevated temperature, conversion into form A. It counts as physicochemical. Particulars: storage at 105° C. for 24 hours. On the procedure:
Furthermore, a very simple method for the preparation of form A from form B has been found. To this end, form B merely needs to be stored at elevated temperatures of between about 75 and about 225° C., preferably 90 and 160° C. and particularly preferably between 110 and 140° C. Depending on the temperature and the storage duration, different degrees of conversion can be achieved. Depending on the target degree of conversion, the storage duration at a given temperature can be between a few minutes and several days. In order to achieve high degrees of conversion, […] is preferably stored for from several hours to days. Suitable storage times are, for example, 4, 8, 12, 16, 20, 24, 36 or 48 hours.

Data set [4] addresses T1, 5-HT2A receptor (Homo sapiens, UniProt P28223). The note with it: background statement, no values; cited from earlier work.
Data set [5] addresses T1, 5-HT2A receptor. The note with it: background statement, no values; cited from earlier work. The source holds these as a separate data set.
[6] abbreviates: cam press, contact time 310 ms, maximum pressing force 16 kN.

T1 sequence (P28223 whole entry): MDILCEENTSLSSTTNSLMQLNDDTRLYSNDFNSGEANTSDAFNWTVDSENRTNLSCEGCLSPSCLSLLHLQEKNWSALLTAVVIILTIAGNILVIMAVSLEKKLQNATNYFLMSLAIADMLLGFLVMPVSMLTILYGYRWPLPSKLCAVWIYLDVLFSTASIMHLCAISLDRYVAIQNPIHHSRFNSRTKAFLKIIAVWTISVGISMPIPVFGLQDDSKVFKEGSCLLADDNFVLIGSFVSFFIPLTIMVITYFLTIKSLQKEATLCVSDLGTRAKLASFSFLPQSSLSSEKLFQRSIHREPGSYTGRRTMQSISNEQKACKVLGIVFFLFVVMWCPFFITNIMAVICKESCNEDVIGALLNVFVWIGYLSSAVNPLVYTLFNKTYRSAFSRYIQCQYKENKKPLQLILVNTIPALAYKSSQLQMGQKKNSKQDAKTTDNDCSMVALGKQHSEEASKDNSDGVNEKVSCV

Take `Cl.N#Cc1c[nH]c2c(C(=O)N3CCN(CCc4ccc(F)cc4)CC3)cccc12` [EMD281014 form A, 7-{4-[2-(4-fluorophenyl)ethyl]-piperazine-1-carbonyl}-1H-indole-3-carbonitrile, hydrochloride]: the “proportion of form B” value in data set [1] (cam press, contact time 250 ms, maximum pressing force 6 kN) is “about 20%”. Also, in data set [1] (setting [6]), the “proportion of form A in the mixture obtained” value is approximately 75% and the “proportion of form B in the mixture obtained” value was “about 25%”. Also, the “proportion of form B” value in data set [2] (250 mg in 5 ml MTBE, stirred 14 days at room temperature) was “about 30 % by weight”. For the same compound, in data set [2] (suspension in MTBE, room temperature, 14 days), the “form B obtained in addition to form A” value was “about 30%”.

For `Cl.N#Cc1c[nH]c2c(C(=O)N3CCN(CCc4ccc(F)cc4)CC3)cccc12` [EMD281014 form B, (3-cyano-1H-indol-7-yl)-[4-(4-fluorophenethyl)piperazin-1-yl]methanone, hydrochloride], the “stability under the tablet production conditions” value in data set [1] (X-ray diffraction patterns of tablets produced from form B, no form A or further polymorphic forms unambiguously identified) was “stable”. In addition, the “conversion of B into A” value in data set [3] is “complete conversion”.

For `Cl.N#Cc1c[nH]c2c(C(=O)N3CCN(CCc4ccc(F)cc4)CC3)cccc12` [EMD281014, (3-cyano-1H-indol-7-yl)-[4-(4-fluorophenethyl)piperazin-1-yl]methanone, hydrochloride], the “affinity to 5-HT2A receptors” value at 5-HT2A receptor [4] is “strong affinity”. The 5-HT2A receptor-antagonistic properties on 5-HT2A receptor [5] is 5-HT2A receptor-antagonistic properties.
